Measurements from patent US6699851B2, “Cytotoxic compounds and their use” (Ardenia Investments, Ltd., priority 2000, dated 2004).
“And” between values parts separate entries of the source, which are not always exact repeats. Equal entries are not always repeated.

Key:
[1] = tested on: Ehrlich ascites carcinoma (EAC); assay: Effect of pretreatment with compositions on antitumour action of DXR in mice with EAC; format: in vivo; conditions: DXR alone (positive control) 3.5 mg/kg i.v. day 1, 3, 5, 7, day 8
Description: Randombred albino mice of the ICR line, female, from own rearing were used in the study. The room for animal housing is provided with filtered air at 15 changes per hour, temperature of 19-21° C., relative humidity of 50-60% and regulated light day of 12 hours with change of light and darkness at 6 h a.m. and 6 h p.m. The mice were kept in transparent polycarbonate cages with floor area of 600 cm^2 containing softwood sawdust bedding. The animals had free access to bottles with domestic quality drinking tap water and to standard feeding for growing animals ad libidum. The mice age 2-2.5 months, weighing 20-23 g were randomly distributed to the control and test groups, standardised by mean weights. The control and test groups included 15 and 12 animals respectively. Specific earmarks identified the mice from each group. […]
The mice were killed by cervical dislocation one day later after the final treatment with the test substances on day 8. Ascites fluids were removed, collected, their volumes were recorded, and abdominal cavities were washed by saline 6-7 times and both fluids were pooled. Volumes of tumour cell pellet after centrifugation at 1000 r.p.m. for 10 min were also recorded. Number of viable tumour cells was counted by haemocytometer. Means and standard errors for each of animal groups were calculated. […] Influence of the composition on EAC growth inhibition was evaluated by: [formula] […]

[2] = tested on: HeLa cell line of human cervical carcinoma; assay: Assay of cytotoxicity: HeLa cell growth inhibition (viable cell count, trypan blue exclusion); format: cell-based; conditions: compound alone; for number of living cells: three days of cultivation
Description: The assay of cytotoxicity of the inventive preparations was carried out on the well-known human cervical carcinoma cell line HeLa. HeLa cells were cultivated in full cultivation medium, containing 80% of Eagle Minimal Essential Medium with glutamine (Sigma), 20% of normal bovine serum, penicillin 100 IE/ml and streptomycin 100 μg/ml. HeLa cell at concentration of 10^5 cells/ml were seed in 24-well plates for adhesive cell lines (Sarstedt) in volume of 2 ml per well. HeLa cells were cultivated in CO2-incubator at temperature 37° C. in humidified atmosphere, consisting of 95% air and 5% CO2. On the next day, the experimental cultures were supplemented with solutions of the inventive preparations in normal bovine serum (NBS) in a volume of 20 μl, in order to obtain the necessary concentration for studying these in cultures. Control cultures were supplemented with normal bovine serum. After that HeLa cells were cultivated two days again at the same conditions. On the third day, HeLa cells from each cultures were harvested separately using versen. The number of viable cells was counted using tryphan blue exclusion test and a hemocytometer.
For evaluation of the cytotoxic action of these assayed preparations on HeLa cells the means value and standard errors of means of viable cell numbers were calculated. The cell growth inhibition (%) was calculated as: [formula]
The extent of cell growth inhibition caused by the assayed preparations was used for evaluation of their cytotoxicity.

[3] = first series of concentrations (5.00-6.59×10^−10 mol/l final)
[4] = second series of concentrations (10.00-13.17×10^−10 mol/l final)

Q: Which results are given for `COc1cccc2c1C(=O)c1c(O)c3c(c(O)c1C2=O)C[C@@](O)(C(=O)CO)C[C@@H]3O[C@H]1C[C@H](N)[C@H](O)[C@H](C)O1` [DXR, Doxorubicin]?
A: EAC growth inhibition [1]: 42.8% and 45.1% and 47.3% and 39.4% and 44.5%; number of tumour cells (EAC cells in abdominal cavity) [1]: 525.2±74.5 ×10^6 and 436.3±51.8 ×10^6 and 614.4±60.2 ×10^6 and 542.6±50.1 ×10^6 and 534.8±39.3 ×10^6

Q: With `CC1=C(/C=C/C(C)=C/C=C/C(C)=C/C(=O)N[C@@H](Cc2ccc(OP(=O)(O)O)cc2)C(=O)O)C(C)(C)CCC1` (stereo in doubt) [C11, N-(all-trans-retinoyl)-O-phospho-L-tyrosine] as the compound, how does the cell growth inhibition [2, 3] read?
A: The cell growth inhibition was 17.1%.

Q: And the “number of living cells” value [2, 3]?
A: The value was 376.7±24.52 ×10^3.

Q: And the cell growth inhibition [2, 4]?
A: Its cell growth inhibition is 5.2%.

Q: And the “number of living cells” value [2, 4]?
A: Its value is 430.8±16.37 ×10^3.

Q: What does the source list for `CCC=CCC=CCC=CCC=CCC=CCC=CCCC(=O)NCCOP(=O)(O)O` [C6, N-docosahexaenoyl-O-phospho-2-aminoethanol]?
A: cell growth inhibition [2, 3]: 6.6%; number of living cells [2, 3]: 424.2±18.41 ×10^3; cell growth inhibition [2, 4]: 7.4%; number of living cells [2, 4]: 420.8±27.79 ×10^3
